Results from PubChem BioAssay (NCI).
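Step 1: Grow cells in 96-well plates. Step 2: Expose to compound for 48 hours at 5 concentrations. Step 3: Interpolate endpoints linearly; if unreached, use highest concentration. TGI: concentration producing complete growth inhibition.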

Experiments:
Assay in all cases: inhibition of tumour cell growth, NCI panel, 48 h
TK-10 renal = test system: TK-10 renal
SK-MEL-28 melanoma = test system: SK-MEL-28 melanoma
HCT-116 colon = test system: HCT-116 colon
ACHN renal = test system: ACHN renal
OVCAR-4 ovarian = test system: OVCAR-4 ovarian
786-0 renal = test system: 786-0 renal
SF-268 CNS = test system: SF-268 CNS
MCF7 breast = test system: MCF7 breast
T-47D breast = test system: T-47D breast
HL-60(TB) leukemia = test system: HL-60(TB) leukemia

SMILES	TGI (TK-10 renal) [µM]	TGI (SK-MEL-28 melanoma) [µM]	TGI (HCT-116 colon) [µM]	TGI (ACHN renal) [µM]	TGI (OVCAR-4 ovarian) [µM]	TGI (786-0 renal) [µM]	TGI (SF-268 CNS) [µM]	TGI (MCF7 breast) [µM]	TGI (T-47D breast) [µM]	TGI (HL-60(TB) leukemia) [µM]
O=C1C(Cl)=C(OCCCl)C(=O)c2c(O)ccc(O)c21	7.76	12.5	2.97	10.4	5.46	17.3	17.1	5.19	4	0.197
CC1(C)CC(O)C(C)(C)[C@@H](O)C1 (stereo not given in full)	> 100	> 100	> 100	> 100	> 100	> 100	> 100	> 100	> 100	> 100
COc1ccc(C2=Nc3cc(C)c(C)cc3NC(c3ccccc3)C2)cc1 (stereo not given)	> 100	> 100	> 100	> 100	> 100	> 100	> 100	> 100	> 100	> 100
COc1cccc(CCN2CCN(CCCc3ccccc3)CC2)c1	> 100	> 100	> 100	> 100	> 100	> 100	> 100	> 100	> 100	> 100
OCC(O)C(O)C(O)C(O)c1nc2ccc(Cl)cc2[nH]1 (stereo not given)	> 100	> 100	> 100	> 100	> 100	> 100	> 100	> 100	> 100	4.89
COC(=O)C1(Cc2ccc3c(c2)CCC3)Cc2ccccc2C1O (stereo not given)	53.1	33	31.8	38.3	27.8	32.4	41.6	49.6	> 100	> 100
C[N+](C)(C)c1ccc(C(N)C(=O)O)cc1 (stereo not given)	> 100	> 100	> 100	> 100	> 100	> 100	> 100	> 100	> 100	> 100
O=S(Nc1ccccc1)c1ccc(N2CCOCC2)cc1 (stereo not given)	> 100	> 100	> 100	> 100	> 100	> 100	> 100	> 100	58.9	> 100
Cc1cc(S(=O)(=O)N/C(=C(\C#N)C(=O)c2ccc(Cl)cc2)[n+]2ccc(N(C)C)cc2)c([S-])cc1Cl	> 100	> 100	37.3	> 100	> 100	> 100	> 100	> 100	> 100	> 100
CC(C)CNc1nc2ncnc(N)c2[nH]1	> 100	> 100	> 100	> 100	> 100	> 100	> 100	> 100	> 100	> 100
ClCCCc1ccccc1C1=NCCc2ccccc21	> 100	> 100	> 100	> 100	> 100	> 100	> 100	> 100	> 100	> 100
CC(=O)OCC1OC(SC2=N/C(=C\c3ccc(Br)s3)C(=O)N2CN2CCOCC2)C(OC(C)=O)C(OC(C)=O)C1OC(C)=O (stereo not given)	34.8	32.9	28.3	46.2	> 100	36.5	81.9	33.8	91.8	12.8
O=C1NC(=O)C(C(CC(=O)c2ccc([N+](=O)[O-])cc2)c2ccccc2)C(=O)N1 (stereo not given)	7.73	> 100	28	> 100	> 100	> 100	> 100	27	67	> 100
O=C(NCCCCCCCCCCCCNC(=O)Nc1cccc2ccccc12)Nc1cccc2ccccc12	31.5	36.3	34.3	27.1	24.1	32.2	31.3	35.1	36.7	37.3
